Read-outs that look alike come from different tables or passages of the source.
Columns and labels:
Pgp (LCC6MDR cells) = Pgp (LCC6MDR cells) (Homo sapiens, UniProt P08183); assay: Cell proliferation assay: Pgp-modulating activity, reversal of anticancer drug resistance in LCC6MDR cells; conditions: for RF (Relative Fold), cpd at 0.5 μM: RF = (IC50 without modulator)/(IC50 with 0.5 μM modulator), paclitaxel
Method: Cell Proliferation Assay. 6,000 cells of LCC6 or LCC6MDR and anticancer drugs (paclitaxel, vinblastine, vincristine, doxorubicin and mitoxantrone) were mixed with or without modulators to a final volume of 200 μL in each well of 96-well plates. […] The plates were then incubated for 5 days at 37° C. […] IC50 values were calculated from the dose-response curves of MTS assays (Prism 4.0).

Raw264.7 cells = assay: Cytotoxicity, mouse macrophage Raw264.7; format: cell-based
Method: (§1) (a) Mouse Macrophage Raw 264.7 and Primary Mouse PEM Cells. The cytotoxicity assay of reference antileishmanial compounds and the compounds of this invention was performed against mouse macrophage cell line, Raw 264.7 and primary mouse PEM cells in order to calculate the therapeutic index (IC50 value for cytotoxicity of the compounds divided by IC50 value for antileishmanial activity of the compounds). The cells were grown in supplemented DMEM media in an atmosphere of 95% air with 5% CO2 at 37° C. In brief, Raw264.7 cells and PEM cells were seeded into 96-well flat bottom microtiter plate at 1×10^4cells and 2×10^4 cells per well in a final volume of 100 μL media, respectively. A graded dose of flavonoid dimers or antileishmanials was added into wells. The plate was incubated at 37° C. for 72 hrs at the atmosphere 5% CO2 in the air. The % of survivors was determined.

[1] = system: LdAG83 promastigotes (wild type); assay: In vitro anti-promastigote activity, LdAG83; format: cell-based, Leishmania donovani; conditions: read-out: Anti-promastigotes activity (IC50, μM) LdAG83
Method: (§2) Cell Lines and Cell Culture. Promastigotes of Leishmania donovani (wild type LdAG83, pentamidine-resistant LdAG83-PentR50, and SSG-resistant Ld39) and Leishmania major [MHOM/IL/67/JERICHO II (Lm50122), from ATCC] were used in this study.
(§3) In Vitro Anti-Promastigote Activity. The viability of promastigotes was determined by the Cell Titer 96° Aqueous Assay (Promega) that employs a tetrazolium compound (MTS, 2-(4,5-Dimethylthiazol-2-yl-)-5-[3-(carboxymethoxy)phenyl]-2-(4-sulfophenyl)-2H-tetrazolium) and electron coupling reagent, phenazine methosulfate (PMS).^7 Promastigotes were seeded into 96-well flat bottom microtiter plate at 1×10^5 cells per well in a final volume of 100 μL medium and incubated with a series concentration of synthetic flavonoid dimers or known antileishmanials. The parasites were incubated at 27° C. for 72 hrs. Fresh solution of 2 mg/mL MTS and 0.92 mg/mL PMS were prepared in a ratio of 20:1 (MTS:PMS). After 72 hrs incubation, 10 μL of MTS:PMS mixture was added into each well of microtiter plate. The plate was then incubated at 27° C. for 4 hrs for color development. After 4 hrs incubation, the OD values were determined at 490 nm using automatic microtiter plate reader (Bio-Rad).

LCC6MDR cells = assay: Tumor cell line cytotoxicity of flavonoid dimers, LCC6MDR; format: cell-based, human; conditions: IC50 of compound alone, 72 hrs
Outline: (§4)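 LCC6, LCC6MDR and L929 cells seeded at 1×10^4 cells/well and exposed to graded doses of flavonoid dimers. Incubation 72 hrs at 37° C., 5% CO2. Read-out: % survivors.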

[2] = system: LCC6, LCC6MDR and L929 cell lines; assay: Cytotoxicity over LCC6, LCC6MDR and L929 cell lines; format: cell-based, human, mouse
Method: (§5) (b) Tumor Cell Line Cytotoxicity. The tumor cytotoxicity assays of flavonoid dimers were performed against LCC6, LCC6MDR and L929 cell lines. The cells were grown in supplemented DMEM media in an atmosphere of 95% air and 5% CO2 at 37° C. In brief, LCC6, LCC6MDR and L929 cells were seeded into 96-well flat bottom microtiter plate at 1×10^4 cells per well in a final volume of 100 μL media, respectively. A graded dose of flavonoid dimers was added into wells. The plate was incubated at 37° C. for 72 hrs at the atmosphere 5% CO2 in the air. The % of survivors was determined.

L929 cells = assay: Cytotoxicity of flavonoid dimers, L929 mouse fibroblast; format: cell-based
Outline: as §4

LCC6 cells = assay: Tumor cell line cytotoxicity of flavonoid dimers, LCC6; format: cell-based, human; conditions: IC50 of compound alone, 72 hrs
Outline: as §4

[3] = system: Ld39 promastigotes (SSG-resistant); assay: In vitro anti-promastigote activity, Ld39; format: cell-based, Leishmania donovani; conditions: read-out: Anti-promastigotes activity (IC50, μM) Ld39
Method: as §2, §3

[4] = Tumor cell line cytotoxicity of flavonoid dimers, LCC6MDR; format: cell-based, human; conditions: human, LCC6MDR cells, IC50 of compound alone
Outline: as §4

[5] = Cytotoxicity over LCC6, LCC6MDR and L929 cell lines; format: cell-based, human, mouse; conditions: human; cancer lines LCC6, LCC6MDR and/or L929
Method: as §5

[6] = system: LdAG83PentR50 promastigotes (pentamidine-resistant); assay: microbe, parasite or virus in culture; format: cell-based, Leishmania donovani; conditions: read-out: Anti-promastigotes activity (IC50, μM) LdAG83PentR50
Method: as §2
No pentamidine or sodium stibogluconate was added to the L. donovani wild type (LdAG83) and L. major wild type (Lm50122). The mouse macrophage cell line, Raw264.7, was used for the determination of the relative toxicity of the compounds of the invention. […] They were maintained at 37° C. in a humidified atmosphere with 5% CO2. The cells were split constantly after a confluent monolayer has been formed. To split cells, the plate was washed briefly with PBS, treated with 0.05% trypsin-EDTA and harvested by centrifugation.
as §3

[7] = Cytotoxicity of flavonoid dimers, L929 mouse fibroblast; format: cell-based; conditions: mouse, L929 fibroblast cells, IC50 of compound alone, 72 hrs, mouse fibroblast
Outline: as §4

[8] = Tumor cell line cytotoxicity of flavonoid dimers, LCC6; format: cell-based, human; conditions: human, LCC6 cells, IC50 of compound alone
Outline: as §4

Ld39 amastigotes = assay: In vitro anti-amastigote activity, Ld39 amastigotes in mouse PEM; conditions: for IC50: Leishmania donovani, in Mus musculus
Method: Peritoneal elicited macrophages (PEM) from mouse were obtained as previously described. A round cover slip (12 mm in diameter) was placed into each well of 24-well culture plate. Mouse macrophages were resuspended in supplemented DMEM media containing 10% heat inactivated fetal bovine serum (v/v), 100 U/mL penicillin and 100 μg/mL streptomycin and seeded into each well at a cell density of 1×10^5 cells per 500 μL. Macrophages were allowed to attach overnight and the non-adherent cells were removed by gentle washing twice with unsupplemented DMEM media. […] Non-internalized promastigotes were removed by washing with unsupplemented DMEM media for two times. Infected macrophages were further incubated in 500 μL supplemented DMEM media in the presence or absence of flavonoid dimers or known antileishmanials for 72 hrs at 37° C. After incubation, the cover slips were stained with Giemsa and the amastigotes inside each macrophage (100 macrophages per treatment) were counted under microscope. The percentage of macrophages infected and number of amastigotes per 100 macrophages was enumerated.
The % of infected macrophage and the number of amastigotes per 100 macrophages were counted by staining with Giemsa.

Lm50122 promastigotes = assay: In vitro anti-promastigote activity, Lm50122; format: cell-based, Leishmania major; conditions: Leishmania major, 72 h, read-out: Anti-promastigotes activity (IC50, μM) Lm50122
Method: as §2, §3

Leishmania promastigotes = assay: Anti-promastigote activity over the Leishmania strains; format: cell-based, Leishmania donovani, Leishmania major; conditions: for IC50: different Leishmania strains, read-out: Anti-promastigote IC50, range over strains
Method: as §2, §3

PEM cells = assay: Cytotoxicity, primary mouse peritoneal elicited macrophage (PEM); format: cell-based
Method: as §1

[9] = 72 h, read-out: Ld39 (IC50, mM)
[10] = Mus musculus, Macrophage, Table 7, cytotoxicity
[11] = cytotoxicity, primary mouse macrophage, 72 hrs
[12] = Leishmania donovani, 72 h, 3 days at 27° C., MTS

Chain of Pgp (LCC6MDR cells) (P08183 whole entry): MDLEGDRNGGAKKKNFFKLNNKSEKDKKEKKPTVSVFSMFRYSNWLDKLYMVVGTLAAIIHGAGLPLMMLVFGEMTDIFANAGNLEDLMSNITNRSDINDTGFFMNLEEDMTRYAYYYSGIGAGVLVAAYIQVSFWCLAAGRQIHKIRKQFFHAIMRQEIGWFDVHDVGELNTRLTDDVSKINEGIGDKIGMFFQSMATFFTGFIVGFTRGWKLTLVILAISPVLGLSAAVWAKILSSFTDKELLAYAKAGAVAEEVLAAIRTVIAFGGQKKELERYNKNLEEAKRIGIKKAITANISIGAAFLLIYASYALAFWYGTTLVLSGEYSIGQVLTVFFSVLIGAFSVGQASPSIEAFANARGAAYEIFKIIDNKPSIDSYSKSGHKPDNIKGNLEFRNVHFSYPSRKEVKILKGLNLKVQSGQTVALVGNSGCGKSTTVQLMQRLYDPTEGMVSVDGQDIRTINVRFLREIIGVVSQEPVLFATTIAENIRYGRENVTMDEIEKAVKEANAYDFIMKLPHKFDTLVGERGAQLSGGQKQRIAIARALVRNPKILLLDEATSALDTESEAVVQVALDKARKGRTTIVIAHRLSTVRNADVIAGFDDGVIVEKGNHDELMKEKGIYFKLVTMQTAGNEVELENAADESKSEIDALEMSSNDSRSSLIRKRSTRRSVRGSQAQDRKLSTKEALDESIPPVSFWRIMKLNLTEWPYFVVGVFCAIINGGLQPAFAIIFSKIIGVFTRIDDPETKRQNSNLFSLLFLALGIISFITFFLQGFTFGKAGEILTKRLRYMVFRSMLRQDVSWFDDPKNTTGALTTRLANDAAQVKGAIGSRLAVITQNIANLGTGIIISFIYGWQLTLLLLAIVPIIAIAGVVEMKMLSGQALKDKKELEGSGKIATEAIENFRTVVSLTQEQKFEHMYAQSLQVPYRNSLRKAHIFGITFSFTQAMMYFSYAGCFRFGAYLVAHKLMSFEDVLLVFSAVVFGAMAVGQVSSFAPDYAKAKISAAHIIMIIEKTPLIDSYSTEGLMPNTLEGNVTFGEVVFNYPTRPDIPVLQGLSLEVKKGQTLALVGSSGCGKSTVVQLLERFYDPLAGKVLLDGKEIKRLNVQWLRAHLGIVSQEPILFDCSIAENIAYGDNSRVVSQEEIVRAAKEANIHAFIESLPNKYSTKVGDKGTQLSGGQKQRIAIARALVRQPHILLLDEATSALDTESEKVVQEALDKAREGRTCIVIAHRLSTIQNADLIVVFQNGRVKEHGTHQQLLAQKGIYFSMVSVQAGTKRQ

Compound	RF (Relative Fold), cpd at 0.5 μM (Pgp (LCC6MDR cells); LCC6MDR)	IC50 (Raw264.7 cells; 72 hrs) [µM]	IC50 ([1]; 3 days at 27° C., MTS) [µM]	IC50 (LCC6MDR cells) [µM]	IC50 (L929 cells) [µM]	IC50 (LCC6 cells) [µM]	IC50 ([3]; 3 days at 27° C., MTS) [µM]	IC50 (Raw264.7 cells; Mus musculus, RAW264.7, 72 h) [µM]	IC50 ([6]; Leishmania donovani, 72 h) [µM]	IC50 (Ld39 amastigotes; [9]) [mM]	IC50 (Leishmania promastigotes) [µM]	IC50 (PEM cells; [10]) [µM]	IC50 (PEM cells; [11]) [µM]	other results
O=c1cc(-c2ccc(OCCOCCN(CCO)CCOCCOc3ccc(-c4cc(=O)c5ccccc5o4)cc3)cc2)oc2ccccc12 [Compound 14, 1,13-Bis[4′-(4H-chromen-4-on-2-yl)phenyl]-N-(2-hydroxyethyl)-1,4,10,13-tetraoxa-7-azamidecane]	(5.0)	6.4 ± 1.5	3.2 ± 1.1	14.8 ± 5.9	6.9 ± 1.4	10.7 ± 3.3	7.2 ± 2.2							IC50 [2]: 6.9 to 14.8 µM
CCOC(=O)CCN(CCOCCOc1ccc(-c2cc(=O)c3ccccc3o2)cc1)CCOCCOc1ccc(-c2cc(=O)c3ccccc3o2)cc1 [Compound 15, 1,13-Bis[4′-(4H-chromen-4-on-2-yl)phenyl]-N-(3-ethoxy-3-oxopropyl)-1,4,10,13-tetraoxa-7-azamidecane]	(5.3)		3.8 ± 0.8	17.7 ± 3.7	18.1 ± 3.4	13.5 ± 0.5	6.6 ± 0.2							IC50 [2]: 13.5 to 17.7 µM
CC(C)(C)OC(=O)N(CCOCCOc1ccc(-c2cc(=O)c3ccccc3o2)cc1)CCOCCOc1ccc(-c2cc(=O)c3ccccc3o2)cc1 [Compound 16a, 1,13-Bis[4′-(4H-chromen-4-on-2-yl)phenyl]-N-(tert-butyloxycarbonyl)-1,4,10,13-tetraoxa-7-azamidecane]	(11.1)							> 100	1.1					Ability to restore paclitaxel sensitivity, fold higher than verapamil (Pgp (LCC6MDR cells); 1.0 μM, LCC6MDR): 24 fold; EC50 (Pgp (LCC6MDR cells); EC50 of compounds for reversing anticancer drug resistance (nM), Paclitaxel, LCC6MDR): 320 ± 40 nM; Therapeutic index (Pgp (LCC6MDR cells); IC50 of compounds for L929/EC50 of compounds for lowering paclitaxel drug resistance): 34.7; IC50 ([1]; Leishmania donovani, 72 h): 3.2 µM; IC50 at 72 h [4]: 6.2 ± 0.8 µM; IC50 at 72 h [5]: < 8 µM; IC50 (L929 cells; IC50 of compound alone, 72 hrs, mouse fibroblast, read-out: Cytotoxicity (μM) L929): 11.1 µM; IC50 at 72 h [7]: < 11.1 µM; IC50 at 72 h [8]: 8 ± 2.5 µM; IC50 ([3]; Leishmania donovani, 72 h): 1.6 µM
O=c1cc(-c2ccc(OCCOCCN(CCOCCOc3ccc(-c4cc(=O)c5ccccc5o4)cc3)Cc3ccncc3)cc2)oc2ccccc12 [Compound 21, 1,13-Bis[4′-(4H-chromen-4-on-2-yl)phenyl]-N-(4-pyridylmethyl)-1,4,10,13-tetraoxa-7-azamidecane]	(6.9)							> 100	0.13 ± 0.04	0.00063 ± 0.00012	0.13 to 0.35	> 88	> 88	% of macrophage infected (Ld39 amastigotes; 5 μM, solvent control 100%): 20%; Number of amastigotes per 100 macrophages (Ld39 amastigotes; 5 μM, solvent control 887): 48; IC50 (Ld39 amastigotes; read-out: IC50 against Ld39 amastigotes): 0.00063 mM; IC50 ([1]; Leishmania donovani, 72 h): 0.18 ± 0.02 µM; IC50 at 72 h [4]: > 100 µM; IC50 (Lm50122 promastigotes): 0.35 ± 0.07 µM; Fold lower anti L. donovani promastigote activity than amphotericin B (Leishmania promastigotes; L. donovani): 2 fold; IC50 at 72 h [7]: 26.4 ± 2.7 µM; IC50 at 72 h [8]: > 100 µM; IC50 ([3]; Leishmania donovani, 72 h): 0.19 ± 0.03 µM
O=C(O)CCC(=O)N(CCOCCOc1ccc(-c2cc(=O)c3ccccc3o2)cc1)CCOCCOc1ccc(-c2cc(=O)c3ccccc3o2)cc1 [Compound 23a, 1,13-Bis[4′-(4H-chromen-4-on-2-yl)phenyl]-N-(4-hydroxy-1,4-dioxobutyl)-1,4,10,13-tetraoxa-7-azamidecane]	(1.1)	65	> 100	> 100		78.4 ± 8.1	> 100							IC50 ([6]; 3 days at 27° C., MTS): 27 µM
Cc1ccc(S(=O)(=O)N(CCOCCOc2ccc(-c3cc(=O)c4ccccc4o3)cc2)CCOCCOc2ccc(-c3cc(=O)c4ccccc4o3)cc2)cc1 [Compound 25a, 1,13-Bis[4′-(4H-chromen-4-on-2-yl)phenyl]-N-(4-methylbenzenesulfonyl)-1,4,10,13-tetraoxa-7-azamidecane]	(5.8)	> 100	100	> 100	> 100	> 100	> 100							
NC[C@@H]1O[C@H](O[C@H]2[C@@H](O)[C@H](O[C@@H]3[C@@H](O)[C@H](N)C[C@H](N)[C@H]3O[C@H]3O[C@H](CO)[C@@H](O)[C@H](O)[C@H]3N)O[C@@H]2CO)[C@H](N)[C@@H](O)[C@@H]1O [Paromomycin, paromomycin, reference compound]								> 100	85.5 ± 13.5	0.041	24.5 to 94.5	> 100	> 100	IC50 [1, 12]: 62.6 ± 9.5 µM; IC50 (Lm50122 promastigotes; 3 days at 27° C., MTS): 94.5 ± 5.5 µM; IC50 [3, 12]: 24.5 ± 2.4 µM
N=C(N)c1ccc(OCCCCCOc2ccc(C(=N)N)cc2)cc1 [Pentamidine, reference compound]								30	74.7	> 0.03	5.3 to 74.7	30.4 ± 10.5	30.4	IC50 [1, 12]: 16.2 µM; IC50 (Lm50122 promastigotes; 3 days at 27° C., MTS): 7.7 ± 1 µM; IC50 [3, 12]: 5.3 ± 0.8 µM

Reference: US8980848B2, “Flavonoid dimers and their use” (The Hong Kong Polytechnic University, priority 2010, dated 2015)
